According to patent publication US7495027B2, “3-aryl-4-hydroxyfuranone compounds and the human and animal health use thereof” (Wyeth, priority 2003, dated 2009):
≈ marks a conversion by molar mass, not a printed value. Like-named read-outs stand apart in the source and are kept apart here.

Legend:
[1] = biological target: E. coli Uridine-diphosphate-N-acetylmuramoyl-L-alanine: D-glutamate liease, MurD (Escherichia coli, UniProt P14900); test: biochemical; conditions: (E) E. coli enzyme
Protocol: S. aureus and E. coli Uridine-diphosphate-N-acetylmuramoyl-L-alanine: D-glutamate liease, MurD
The buffer is prepared from aqueous reagents with the following final concentrations: 83 mM Tris/HCl (pH 8.0), 50 mM MgCl2, and 2 mM ATP.
(§1) Preparation of Enzyme Solution:
(§2) Preparation of Test Compound Solutions:
(§3) All test solutions are prepared in DMSO as 10 mg/mL, then diluted with 50 mM Tris/HCl (pH 8.5) to 100 μg/mL.
(§4) Preparation of Stop Solution:
In this evaluation, the inhibitory activity of a test compound against MurD, the enzyme which catalyzes the fourth step of bacterial cell wall biosynthesis is determined.

Streptococci = test: Minimum inhibitory concentration, microdilution broth method, streptococci; format: cell-based; conditions: S. pneumo GC 1894; Mueller-Hinton broth with 5% horse blood, 18-22 hours at 35° C.
Protocol: (§5) Evaluation of the Minimum Inhibitory Concentration of Test Compounds Against A Variety of Bacterial Strains
(§6) In this evaluation the minimal inhibitory concentration (MIC) of test compounds against Gram positive and Gram negative bacteria is performed using the microdilution broth method as recommended by the National Committee for Clinical Laboratory Standards (Approved Standards M7-A5 2000). Mueller-Hinton broth is used for the enterobacteriaceae, staphylococci and enterococci. Streptococci are also tested in Mueller-Hinton broth supplemented with 5% horse blood (LHB). Test organisms include recent clinical isolates that are resistant to methicillin, penicillin and/or vancomycin. […].

staphylococci = test: Minimum inhibitory concentration, microdilution broth method, staphylococci; format: cell-based; conditions: Staphylococcus aureus, Mueller-Hinton broth, 18-22 hours at 35° C.
Protocol: as §5, §6

[2] = biological target: E. coli Uridine-diphosphate-N-acetvimuramoyl: L-alanine lipase, MurC (Escherichia coli, UniProt P17952); test: Inhibitory activity against MurC (E. coli); format: biochemical
Sequence of E. coli Uridine-diphosphate-N-acetvimuramoyl: L-alanine lipase, MurC (P17952 whole entry): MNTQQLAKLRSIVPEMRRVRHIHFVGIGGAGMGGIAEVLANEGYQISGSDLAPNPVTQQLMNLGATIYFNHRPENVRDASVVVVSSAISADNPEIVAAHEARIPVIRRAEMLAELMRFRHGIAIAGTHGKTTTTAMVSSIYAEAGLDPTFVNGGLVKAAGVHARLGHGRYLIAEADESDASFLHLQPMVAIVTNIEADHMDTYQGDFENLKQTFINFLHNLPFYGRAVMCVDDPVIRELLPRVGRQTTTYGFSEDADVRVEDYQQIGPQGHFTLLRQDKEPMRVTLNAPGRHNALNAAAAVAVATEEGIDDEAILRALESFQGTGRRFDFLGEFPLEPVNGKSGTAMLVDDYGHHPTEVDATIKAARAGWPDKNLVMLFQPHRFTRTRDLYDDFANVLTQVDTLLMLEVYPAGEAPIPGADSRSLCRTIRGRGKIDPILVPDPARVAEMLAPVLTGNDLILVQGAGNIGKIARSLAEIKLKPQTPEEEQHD
Protocol: S. aureus and E. coli Uridine-diphosphate-N-acetvimuramoyl: L-alanine lipase, MurC
The buffer is prepared from aqueous reagents with the following final concentrations: 83 mM Tris/HCl (pH 8.0), 50 mM MgC12, and 2 mM ATP.
as §1
A 1 mg/mL stock solution of MurC is prepared in a buffer consisting of 20 mM Tris/HCl (pH 8.5) with 2.5 μM BME. The stock solution is further diluted with the buffer to give a final enzyme concentration of 100 μg/mL for the E. coli stock solution and 70 μg/mL for the S. aureus stock solution.
as §2, §3, §4
The stop solution is prepared by stirring 1 part 4.2% ammonium molydbate in 4N HCl with 2 parts 0.045% malachite green for 30 min.
In this evaluation, the inhibitory activity of a test compound against MurC, the enzyme which catalyzes the third step of bacterial cell wall bioxynthesis is determined. Experiments are performed by adding 2.5 μl buffer, 2.5 μl 0.5M NH4SO2, 5 μl 2 μM L-Ala, 5 μl enzyme solution and 6.5 μl test compound solution to each well in a 96-well microplate. After a pre-incubation period of 10 mins. at 23° C., 3.75 μl of a 0.75 μM solution of UDP-MurNac is added to each well. Following an incubation period of 10 mins. at 37° C., 210 μl stop solution and 50 μl of a 34% w/v sodium citrate solution are added and color is allowed to develop for 10 mins. at 23° C. (Lanzetta et al., Analytical Biochemistry, 1979, 95) Optical density readings are taken at 660 nm using a Molecular Devices Spectra Max 250 with Soft Max software. Controls are performed using the same procedure and omitting the addition of UDP-MurNac.
Using these values the IC50 is determined by linear regression analysis.

enterococci = test: Minimum inhibitory concentration, microdilution broth method, enterococci; format: cell-based; conditions: Enterococcus faecalis, Mueller-Hinton broth, 18-22 hours at 35° C.
Protocol: as §5, §6

[3] = biological target: E. coli Enopyruvyl-UPD-N-acetylglucosamine reductase, Mur B (Escherichia coli, UniProt P08373); test: biochemical; conditions: (E) E. coli enzyme; for IC50: read-out: MurB IC50 (converted)
Sequence of E. coli Enopyruvyl-UPD-N-acetylglucosamine reductase, Mur B (P08373 whole entry): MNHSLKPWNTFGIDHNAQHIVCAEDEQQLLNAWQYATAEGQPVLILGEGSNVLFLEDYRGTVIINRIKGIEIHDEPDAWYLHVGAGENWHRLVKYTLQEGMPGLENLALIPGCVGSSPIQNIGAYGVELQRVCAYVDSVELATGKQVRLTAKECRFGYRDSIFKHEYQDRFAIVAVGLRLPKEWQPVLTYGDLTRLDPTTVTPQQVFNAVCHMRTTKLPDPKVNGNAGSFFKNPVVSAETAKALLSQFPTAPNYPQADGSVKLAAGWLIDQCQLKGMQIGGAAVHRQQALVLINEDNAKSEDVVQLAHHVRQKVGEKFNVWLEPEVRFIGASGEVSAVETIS
Protocol: S. aureus and E. coli Enopyruvyl-UPD-N-acetylglucosamine reductase, Mur B
Preparation of Tris/BME buffer:
Dilute 17.5 uL of aqueous 5 mM BME (2-mercaptoethanol) to 50 mL with 50 mM Tris/HCl (pH 8.0).
as §1
Dilute aqueous MurB stock solution (0.94 mg/mL) with 200 parts 50 mM Tris/2-BME buffer.
Synthesis of Substrate for MurB (MurA Product EP-UDP-GluNAc):
A mixture of 13 mg UDP-N-acetylglucosamine and 5.5 mg phosphoenolpyruvate are dissolved in 10 mL Tris/BME buffer forming 2 mM concentrations of each reagent in solution.
Preparation of Assay Buffer:
The assay buffer is prepared in water from reagents with the following final concentrations: 100 mM Tris/HCl (pH 8.0), 200 μM NADPH, 100 μM MurB substrate, 10 μM 2-mercaptoethanol, and 10 μM KCl.
Experiments are performed by adding 20 μL of a solution of test compound in a mixture of dimethylsulfoxide and water and 30 μL of enzyme solution to a well. After a pre-incubation period of 20 mins. at 23° C., 50 μL of Tris/BME buffer and 100 μL of assay buffer are added. […] Controls are performed using the same procedure and employing 20 μL of a blank dimethylsulfonide and solvent mixture in place of the test compound solution.
Using these values, the IC50 for each test compound is determined by linear regression analysis.

[4] = biological target: E. coli UDP-N-acetylglucosamine enolpyruvoyl transferase, MurA (Escherichia coli, UniProt P0A749); test: biochemical; conditions: (E) E. coli enzyme
Sequence of E. coli UDP-N-acetylglucosamine enolpyruvoyl transferase, MurA (P0A749 whole entry): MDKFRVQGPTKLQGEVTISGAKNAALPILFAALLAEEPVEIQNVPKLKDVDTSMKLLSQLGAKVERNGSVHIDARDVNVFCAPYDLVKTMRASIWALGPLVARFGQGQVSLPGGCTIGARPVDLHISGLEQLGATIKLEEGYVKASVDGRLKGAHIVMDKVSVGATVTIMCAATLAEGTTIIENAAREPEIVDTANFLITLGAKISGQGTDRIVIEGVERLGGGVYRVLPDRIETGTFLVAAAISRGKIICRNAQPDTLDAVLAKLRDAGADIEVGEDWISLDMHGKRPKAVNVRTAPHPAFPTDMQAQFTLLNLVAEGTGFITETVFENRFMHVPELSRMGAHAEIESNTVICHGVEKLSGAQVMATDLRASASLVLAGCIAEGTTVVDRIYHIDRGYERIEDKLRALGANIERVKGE
Protocol: Evaluation of the Inhibitory Activity of Test Compounds Against Enzymes which Catalyze Bacterial Cell Wall Biosynthesis
S. aureus and E. coli UDP-N-acetylglucosamine enolpyruvoyl transferase, MurA
as §1
The enzyme solution is prepared by admixing the following: 50 mM Tris/HCl pH 8.0, […] 1 M Tris, 5 mM DTT, […] 1 M DTT, 20% Glycerol 4 ml 50% Glycerol, add water to 10 ml.
as §4
A procedure similar to that described by C. […] Experiments are performed by adding a solution of test compound (in a mixture of dimethylsulfoxide and water) and an enzyme solution to a well. After a pre-incubation period of 10 mintues at 37° C., Tris/BME buffer and assay buffer are added. A start point optical density (OD0) reading is taken at 340 nm immediately following the addition of assay buffer. After incubation for 1 hr at 37° C., the stop solution is added and the color is allowed to develop for 30 minutes.

[5] = S. aureus GC 1131, read-out: MIC S. aureus GC 1131
[6] = S. aureus GC 4543, read-out: MIC S. aureus GC 4543
[7] = E. faecalis GC 2242, read-out: MIC E. faecalis GC 2242
[8] = E. faecalis GC 4555, read-out: MIC E. faecalis GC 4555
[9] = (E) E. coli enzyme, read-out: MurC IC50 (converted)

Sequence of E. coli Uridine-diphosphate-N-acetylmuramoyl-L-alanine: D-glutamate liease, MurD (P14900 whole entry): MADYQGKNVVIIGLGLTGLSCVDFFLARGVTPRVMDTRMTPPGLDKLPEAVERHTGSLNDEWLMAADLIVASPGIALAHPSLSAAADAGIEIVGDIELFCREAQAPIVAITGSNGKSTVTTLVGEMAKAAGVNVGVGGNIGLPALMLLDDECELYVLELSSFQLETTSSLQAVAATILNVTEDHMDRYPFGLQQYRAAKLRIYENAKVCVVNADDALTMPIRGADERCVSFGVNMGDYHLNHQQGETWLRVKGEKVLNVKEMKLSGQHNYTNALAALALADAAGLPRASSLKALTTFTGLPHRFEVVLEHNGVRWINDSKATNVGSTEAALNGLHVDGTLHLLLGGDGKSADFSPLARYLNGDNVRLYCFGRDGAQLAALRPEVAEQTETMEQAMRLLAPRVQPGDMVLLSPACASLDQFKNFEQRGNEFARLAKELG

| Structure (SMILES) | IC50 [1] [µM] | MIC (Streptococci) [µg/mL] | MIC (staphylococci; [5]) [µg/mL] | MIC (staphylococci; [6]) [µg/mL] | IC50 ([2]; MurC IC50, (E) E. coli enzyme) [µM] | MIC (enterococci; [7]) [µg/mL] | MIC (enterococci; [8]) [µg/mL] | IC50 [3] [µM] | IC50 [4] [µM] | IC50 [2, 9] [µM] | MurD IC50 [1] | MurC IC50 ([2]; (E) E. coli enzyme) | MurB IC50 [3] | MurA IC50 [4] |
| --- | --- | --- | --- | --- | --- | --- | --- | --- | --- | --- | --- | --- | --- | --- |
| O=C1O/C(=C\c2ccccc2C(F)(F)F)C(O)=C1c1ccc(-c2ccccc2)cc1 [Example 99, 3-[1.1′-Biphenyl]-4-yl-4-hydroxy-5-{(Z)-[2-(trifluoromethyl)benzylidene]}-5H-furan-2-one] | > 61.2 | 0.25 (≈ 0.612 µM) | 4 (≈ 9.79 µM) | 2 (≈ 4.9 µM) | 9.79 | 4 (≈ 9.79 µM) | 16 (≈ 39.2 µM) | 14.7 | 9.79 |  |  |  |  |  |
| CCOc1ccc(-c2ccc(C3=C(O)/C(=C/c4cc(C(F)(F)F)ccc4F)OC3=O)cc2)cc1 [Example 122] | > 53.1 | 1 (≈ 2.13 µM) | 16 (≈ 34 µM) | 16 (≈ 34 µM) |  | 8 (≈ 17 µM) | 32 (≈ 68 µM) | 29.8 | 34 | > 53.1 |  |  |  |  |
| CCCc1ccc(-c2ccc(C3=C(O)/C(=C/c4cc(F)cc(C(F)(F)F)c4)OC3=O)cc2)cc1 [Example 111] | > 53.4 | 0.25 (≈ 0.534 µM) | 32 (≈ 68.3 µM) | 16 (≈ 34.2 µM) |  | 1 (≈ 2.13 µM) | 16 (≈ 34.2 µM) | 23.5 | > 53.4 | > 53.4 |  |  |  |  |
| CCOc1ccc(-c2ccc(C3=C(O)/C(=C/c4cccc(C(F)(F)F)c4Cl)OC3=O)cc2)cc1 [Example 117] | > 51.3 | 0.5 (≈ 1.03 µM) | 64 (≈ 131 µM) | 32 (≈ 65.7 µM) |  | 8 (≈ 16.4 µM) | 32 (≈ 65.7 µM) | 14.4 | 20.5 | > 51.3 |  |  |  |  |
| CCCc1ccc(-c2ccc(C3=C(O)/C(=C/c4cccc(C(F)(F)F)c4)OC3=O)cc2)cc1 [Example 131] | 20 | 0.25 (≈ 0.555 µM) | 32 (≈ 71 µM) | 16 (≈ 35.5 µM) |  | 4 (≈ 8.88 µM) | 8 (≈ 17.8 µM) | 4.44 | 8.88 | 40 |  |  |  |  |
| O=C1O/C(=C\c2cc(C(F)(F)F)ccc2F)C(O)=C1c1ccc(-c2ccccc2)c(F)c1 [Example 119] |  | 0.5 (≈ 1.13 µM) | 2 (≈ 4.5 µM) | 2 (≈ 4.5 µM) |  | 2 (≈ 4.5 µM) | 2 (≈ 4.5 µM) |  |  |  | 6 (E) μg/mL | 2 (E) μg/mL | 1 (E) μg/mL | 1 (E) μg/mL |
| CC(C)(C)c1ccc(-c2ccc(C3=C(O)/C(=C/c4cc(C(F)(F)F)ccc4Cl)OC3=O)cc2)cc1 [Example 128] | > 50.1 | 0.25 (≈ 0.501 µM) | 8 (≈ 16 µM) | 4 (≈ 8.02 µM) |  | 2 (≈ 4.01 µM) | 8 (≈ 16 µM) | 10 | 8.02 | 48.1 |  |  |  |  |
| O=C1O/C(=C\c2cc(C(F)(F)F)ccc2Cl)C(O)=C1c1ccc(-c2ccccc2)cc1 [Example 125] | 45.2 | 0.5 (≈ 1.13 µM) | 2 (≈ 4.52 µM) | 2 (≈ 4.52 µM) |  | 4 (≈ 9.03 µM) | 8 (≈ 18.1 µM) | 11.3 | 9.03 | 2.26 |  |  |  |  |
| CCCc1ccc(-c2ccc(C3=C(O)/C(=C/c4cc(C(F)(F)F)ccc4Cl)OC3=O)cc2)cc1 [Example 127] | > 51.6 | 0.25 (≈ 0.516 µM) | 4 (≈ 8.25 µM) | 2 (≈ 4.12 µM) |  | 2 (≈ 4.12 µM) | 4 (≈ 8.25 µM) | 12.4 | 8.25 | > 51.6 |  |  |  |  |
| CCOc1ccc(-c2ccc(C3=C(O)/C(=C/c4cc(C(F)(F)F)ccc4Cl)OC3=O)cc2)cc1 [Example 129] | 14.4 | 0.25 (≈ 0.513 µM) | 2 (≈ 4.11 µM) | 2 (≈ 4.11 µM) |  | 2 (≈ 4.11 µM) | 4 (≈ 8.22 µM) | 4.11 | 4.11 | 14.4 |  |  |  |  |
| CC(C)(C)c1ccc(-c2ccc(C3=C(O)/C(=C/c4ccc(Cl)c(C(F)(F)F)c4)OC3=O)cc2)cc1 [Example 123] | > 50.1 | 0.5 (≈ 1 µM) | 16 (≈ 32.1 µM) | 16 (≈ 32.1 µM) |  | 4 (≈ 8.02 µM) | 8 (≈ 16 µM) | 6.01 | 42.1 | > 50.1 |  |  |  |  |
| CCCc1ccc(-c2ccc(C3=C(O)/C(=C/c4cccc(C(F)(F)F)c4Cl)OC3=O)cc2)cc1 [Example 115] | > 51.6 | 0.25 (≈ 0.516 µM) | 4 (≈ 8.25 µM) | 4 (≈ 8.25 µM) |  | 0.25 (≈ 0.516 µM) | 2 (≈ 4.12 µM) | 10.3 | 10.3 | > 51.6 |  |  |  |  |
| CC(C)(C)c1ccc(-c2ccc(C3=C(O)/C(=C/c4cc(C(F)(F)F)ccc4F)OC3=O)cc2)cc1 [Example 120] | 33.2 | 0.5 (≈ 1.04 µM) | 16 (≈ 33.2 µM) | 16 (≈ 33.2 µM) |  | 4 (≈ 8.29 µM) | 8 (≈ 16.6 µM) | 10.4 | 8.29 | 47.7 |  |  |  |  |
| CCOc1ccc(-c2ccc(C3=C(O)/C(=C/c4cccc(C(F)(F)F)c4)OC3=O)cc2)cc1 [Example 133] | 48.6 | 0.5 (≈ 1.11 µM) | 32 (≈ 70.7 µM) | 32 (≈ 70.7 µM) |  | 8 (≈ 17.7 µM) | 16 (≈ 35.4 µM) | 26.5 | 44.2 | 48.6 |  |  |  |  |
| O=C1O/C(=C\c2cccc(C(F)(F)F)c2Cl)C(O)=C1c1ccc(-c2ccccc2)c(F)c1 [Example 114] |  | 0.25 (≈ 0.543 µM) | 1 (≈ 2.17 µM) | 1 (≈ 2.17 µM) |  | 0.5 (≈ 1.09 µM) | 2 (≈ 4.34 µM) |  |  |  | 16 (E) μg/mL | 10 (E) μg/mL | 1 (E) μg/mL | 1 (E) μg/mL |
